Reference: patent US8192962B2, “Processes for detecting toxic substances” (Daikin Industries, Ltd., priority 2001, dated 2012)

Tested on: Energy system protein genes
Test: DNA chip mRNA expression in yeast, energy system protein genes (Table 4)
Format: cell-based, Saccharomyces cerevisiae S288C
How it was run: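 Cells were grown at 25° C. in YPD, treated at logarithmic phase for 2 h with a chemical at a concentration inhibiting growth but not causing death, and compared with untreated cultures. Labeled cDNA was hybridized to a DNA chip carrying all yeast genes, and the expression ratio was taken from scanner fluorescence.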

Structure (SMILES): S=C([S-])NCCNC(=S)[S-].[Zn+2] [(11), zinc N,N′-ethylenebis(dithiocarbamate)]
- The level of expressed mRNA in the presence of chemical substance/The level of expressed mRNA in the absence of chemical substance (yeast gene YAL060W): 2.4
- The level of expressed mRNA in the presence of chemical substance/The level of expressed mRNA in the absence of chemical substance (yeast gene YBL058W, cells incubated two hours with the chemical substance): 1.3
- The level of expressed mRNA in the presence of chemical substance/The level of expressed mRNA in the absence of chemical substance (yeast gene YBL099W, cells incubated two hours with the chemical substance): 2.1
- The level of expressed mRNA in the presence of chemical substance/The level of expressed mRNA in the absence of chemical substance (yeast gene YBR001C, cells incubated two hours with the chemical substance): 1.0
- The level of expressed mRNA in the presence of chemical substance/The level of expressed mRNA in the absence of chemical substance (yeast gene YBR185C, cells incubated two hours with the chemical substance): 1.2
- The level of expressed mRNA in the presence of chemical substance/The level of expressed mRNA in the absence of chemical substance (yeast gene YBR221C, cells incubated two hours with the chemical substance): 1.2
- The level of expressed mRNA in the presence of chemical substance/The level of expressed mRNA in the absence of chemical substance (yeast gene YCL040W): 8.2
- The level of expressed mRNA in the presence of chemical substance/The level of expressed mRNA in the absence of chemical substance (yeast gene YCR012W): 1.8
- The level of expressed mRNA in the presence of chemical substance/The level of expressed mRNA in the absence of chemical substance (yeast gene YCR046C, cells incubated two hours with the chemical substance): 1.5
- The level of expressed mRNA in the presence of chemical substance/The level of expressed mRNA in the absence of chemical substance (yeast gene YCR105W, cells incubated two hours with the chemical substance): 2.3
- The level of expressed mRNA in the presence of chemical substance/The level of expressed mRNA in the absence of chemical substance (yeast gene YDL021W): 4.7
- The level of expressed mRNA in the presence of chemical substance/The level of expressed mRNA in the absence of chemical substance (yeast gene YDL067C, cells incubated two hours with the chemical substance): 1.4
- The level of expressed mRNA in the presence of chemical substance/The level of expressed mRNA in the absence of chemical substance (yeast gene YDL078C, cells incubated two hours with the chemical substance): 1.7
- The level of expressed mRNA in the presence of chemical substance/The level of expressed mRNA in the absence of chemical substance (yeast gene YDL107W, cells incubated two hours with the chemical substance): 1.0
- The level of expressed mRNA in the presence of chemical substance/The level of expressed mRNA in the absence of chemical substance (yeast gene YDL174C): 0.9
- The level of expressed mRNA in the presence of chemical substance/The level of expressed mRNA in the absence of chemical substance (yeast gene YDL181W, cells incubated two hours with the chemical substance): 0.8
- The level of expressed mRNA in the presence of chemical substance/The level of expressed mRNA in the absence of chemical substance (yeast gene YDR001C): 0.7
- The level of expressed mRNA in the presence of chemical substance/The level of expressed mRNA in the absence of chemical substance (yeast gene YDR050C, cells incubated two hours with the chemical substance): 2.0
- The level of expressed mRNA in the presence of chemical substance/The level of expressed mRNA in the absence of chemical substance (yeast gene YDR079W, cells incubated two hours with the chemical substance): 1.3
- The level of expressed mRNA in the presence of chemical substance/The level of expressed mRNA in the absence of chemical substance (yeast gene YDR178W, cells incubated two hours with the chemical substance): 2.0
- The level of expressed mRNA in the presence of chemical substance/The level of expressed mRNA in the absence of chemical substance (yeast gene YDR231C): 1.3
- The level of expressed mRNA in the presence of chemical substance/The level of expressed mRNA in the absence of chemical substance (yeast gene YDR298C, cells incubated two hours with the chemical substance): 1.2
- The level of expressed mRNA in the presence of chemical substance/The level of expressed mRNA in the absence of chemical substance (yeast gene YDR377W, cells incubated two hours with the chemical substance): 1.4
- The level of expressed mRNA in the presence of chemical substance/The level of expressed mRNA in the absence of chemical substance (yeast gene YDR529C, cells incubated two hours with the chemical substance): 0.8
- The level of expressed mRNA in the presence of chemical substance/The level of expressed mRNA in the absence of chemical substance (yeast gene YEL024W, cells incubated two hours with the chemical substance): 0.9
- The level of expressed mRNA in the presence of chemical substance/The level of expressed mRNA in the absence of chemical substance (yeast gene YEL039C, cells incubated two hours with the chemical substance): 1.7
- The level of expressed mRNA in the presence of chemical substance/The level of expressed mRNA in the absence of chemical substance (yeast gene YER178W): 2.5
- The level of expressed mRNA in the presence of chemical substance/The level of expressed mRNA in the absence of chemical substance (yeast gene YFL057C): 27.7
- The level of expressed mRNA in the presence of chemical substance/The level of expressed mRNA in the absence of chemical substance (yeast gene YFR053C): 1.5
- The level of expressed mRNA in the presence of chemical substance/The level of expressed mRNA in the absence of chemical substance (yeast gene YGL018C, cells incubated two hours with the chemical substance): 1.1
- The level of expressed mRNA in the presence of chemical substance/The level of expressed mRNA in the absence of chemical substance (yeast gene YGL062W): 0.7
- The level of expressed mRNA in the presence of chemical substance/The level of expressed mRNA in the absence of chemical substance (yeast gene YGL187C, cells incubated two hours with the chemical substance): 0.7
- The level of expressed mRNA in the presence of chemical substance/The level of expressed mRNA in the absence of chemical substance (yeast gene YGL191W, cells incubated two hours with the chemical substance): 1.6
- The level of expressed mRNA in the presence of chemical substance/The level of expressed mRNA in the absence of chemical substance (yeast gene YGL205W, cells incubated two hours with the chemical substance): 0.4
- The level of expressed mRNA in the presence of chemical substance/The level of expressed mRNA in the absence of chemical substance (yeast gene YGL256W, cells incubated two hours with the chemical substance): 1.0
- The level of expressed mRNA in the presence of chemical substance/The level of expressed mRNA in the absence of chemical substance (yeast gene YGR008C): 2.6
- The level of expressed mRNA in the presence of chemical substance/The level of expressed mRNA in the absence of chemical substance (yeast gene YGR043C): 3.6
- The level of expressed mRNA in the presence of chemical substance/The level of expressed mRNA in the absence of chemical substance (yeast gene YGR062C, cells incubated two hours with the chemical substance, 25° C., YPD medium): 1.6
- The level of expressed mRNA in the presence of chemical substance/The level of expressed mRNA in the absence of chemical substance (yeast gene YGR087C, cells incubated two hours with the chemical substance): 0.8
- The level of expressed mRNA in the presence of chemical substance/The level of expressed mRNA in the absence of chemical substance (yeast gene YGR174C, cells incubated two hours with the chemical substance): 1.3
- The level of expressed mRNA in the presence of chemical substance/The level of expressed mRNA in the absence of chemical substance (yeast gene YGR192C): 2.3
- The level of expressed mRNA in the presence of chemical substance/The level of expressed mRNA in the absence of chemical substance (yeast gene YGR244C): 1.8
- The level of expressed mRNA in the presence of chemical substance/The level of expressed mRNA in the absence of chemical substance (yeast gene YGR254W): 1.3
- The level of expressed mRNA in the presence of chemical substance/The level of expressed mRNA in the absence of chemical substance (yeast gene YGR256W): 2.7
- The level of expressed mRNA in the presence of chemical substance/The level of expressed mRNA in the absence of chemical substance (yeast gene YHL008C): 1.4
- The level of expressed mRNA in the presence of chemical substance/The level of expressed mRNA in the absence of chemical substance (yeast gene YHR174W): 1.4
- The level of expressed mRNA in the presence of chemical substance/The level of expressed mRNA in the absence of chemical substance (yeast gene YHR179W): 2.0
- The level of expressed mRNA in the presence of chemical substance/The level of expressed mRNA in the absence of chemical substance (yeast gene YIL045W): 1.2
- The level of expressed mRNA in the presence of chemical substance/The level of expressed mRNA in the absence of chemical substance (yeast gene YIL160C): 2.4
- The level of expressed mRNA in the presence of chemical substance/The level of expressed mRNA in the absence of chemical substance (yeast gene YIR031C, cells incubated two hours with the chemical substance): 1.2
- The level of expressed mRNA in the presence of chemical substance/The level of expressed mRNA in the absence of chemical substance (yeast gene YJL052W): 4.3
- The level of expressed mRNA in the presence of chemical substance/The level of expressed mRNA in the absence of chemical substance (yeast gene YJL121C, cells incubated two hours with the chemical substance): 1.1
